In brackets after ≈: the same amount, converted by molar mass.
Key:
[1] = Solubility test by HPLC in PBS pH 7.4; assay type: physicochemical; settings: for solubility kinetic: PBS (phosphate buffer saline), aqueous buffer, kinetic from dmso stock
Procedure: HPLC method used to test the solubility.
Solubility test was performed by HPLC analysis (column 4.6×15 mm) water/0.1% TFA —CH3CN/0.06% TFA gradient) against standard.
A […] solution of the substance dissolved in DMSO was prepared.
In order to prepare the sample 190 μl of PBS (Phosphate Buffer Saline, pH 7.4) were added to 10 μl of the above solution; instead (while) in order to prepare the standard 190 μl of DMSO to other 10 μl of solution were added.

PDE 4 enzyme = target: T1, PDE 4 enzyme; assay: PDE 4 enzyme inhibition (SPA); assay type: biochemical; settings: for % at 10^−7: PDE 4 from U937 cell line
T1 construct: % at 10^−7; other: at 10^−7; PDE 4 from U937 cell line; other: PDE 4 isolated from U937 cell line; SPA with 3H-cAMP
Procedure: a) PDE 4 Enzyme Purification
PDE 4 enzyme was isolated from U937 cell line according to the method of Nielson et al. (J. Allergy Clin. Immunol. 1990, vol. 86, pages 801-807) partially modified for the FPLC technique (Fast Protein Liquid Chromatography).
U-937cell line (Istituto Zooprofilattico Sperimentale, Brescia, Italy) was maintained in RPMI 1640, with 10% foetal calf serum and 2 mM glutamine, at a cell density between 1×10^6 and 8×10^6 cells per ml in an incubator at 37° C. with 5% CO2.
U937 suspension was homogenised in a buffer containing 10 mM TRIS (tri-(hydroxymethyl)-aminomethane), 5 mM MgCl2, 4 mM EGTA (ethyleneglycol-bis-(β-aminoethylether)-N,N,N′N′-tetra-acetic acid), 5 mM […]-mercaptoethanol, 1 μM leupeptin, 1 μM pepstatin, 1% TRITON x-100, and 100 μM phenylmethyl sulfonyl fluoride (PMSF) at pH 7.8.
The homogenate was centrifuged and the supernatant was used for the purification of the PDE 4 enzyme; it was seeded on a column connected to a biologic chromatography system (FPLC, BIO RAD).
PDE 4 enzyme was eluted with a linear gradient, from 0.05 M to 1 M of sodium acetate, and elution fractions were collected for PDE4 activity assay.
The fractions containing PDE4 activity were collected and, after an overnight dialysis against water to remove sodium acetate, were concentrated to 30% volume with an Amicon filtration system (using YM10 membrane filter).
Ethylene glycol (30% v/v) was added and the sample was stored at −20° C. in a single aliquot until the use.
PDE 4 activity assay was performed using Scintillation Proximity Assay (SPA) Amershan kit consisting of tracer ^3H-cAMP, PDE assay buffer (10×solution: 500 mM TRIS/HCl pH 7.5, 83 mM MgCl2 and 17 mM EGTA) and Yttrium SPA PDE beads (containing 18 mM zinc sulphate).
The radioactivity of the beads was measured using a scintillation counter (Packard model MINAXI β TRI-CARB 4000 SERIES).
The IC50 values were calculated from concentration-inhibition curves by non linear regression analysis using the program ORIGIN 3.5 (MICROCAL SOFTWARE INC.) and each fitting was the mean±SEM of 3 experiments using different PDE 4 preparations.

[2] = PBS pH 7.4, HPLC against standard, compounds of formula I
[3] = PBS pH 7.4, HPLC, compounds of WO 00/05218

| solubility kinetic [1, 2] [µg/mL] | Sol. [1, 2] [µM] | IC50 (PDE 4 enzyme; PDE 4 isolated from U937 cell line, SPA with 3H-cAMP) [nM] | % at 10^−7 (PDE 4 enzyme) [% at 10^−7] | Compound | Sol. [1, 3] [µM] |
| --- | --- | --- | --- | --- | --- |
| 271 (≈ 508 µM) | 508.44 |  |  | COc1ccc2c(Cc3c(Cl)cncc3Cl)nnc(-c3cc(NS(C)(=O)=O)cc(C(=O)O)c3)c2c1 [Compound 6, 3-[4-(3,5-dichloro-pyridin-4-ylmethyl)-7-methoxy-phthalazin-1-yl]-5-methanesulfonylamino-benzoic Acid] |  |
| 235 (≈ 500 µM) | 500.00 |  |  | COc1cc(C(=O)O)cc(-c2nnc(Cc3c(Cl)cncc3Cl)c3ccc(OC)cc23)c1 [Compound 7, 3-[4-(3,5-dichloro-pyridin-4-ylmethyl)-7-methoxy-phthalazin-1-yl]-5-methoxy-benzoic Acid] |  |
| 230 (≈ 489 µM) | 489.36 | 91.3 |  | COc1ccc2c(Cc3c(Cl)cncc3Cl)nnc(-c3cc(C(=O)O)ccc3OC)c2c1 [Compound 5, 3-[4-(3,5-dichloro-pyridin-4-ylmethyl)-7-methoxy-phthalazin-1-yl]-4-methoxy-benzoic Acid] |  |
| 202 (≈ 468 µM) | 468.68 |  | 14 | COc1ccc2c(Cc3c(Cl)cncc3Cl)nnc(-c3nc(C(=O)O)co3)c2c1 [Compound 9, 2-[4-(3,5-dichloro-pyridin-4-ylmethyl)-7-methoxy-phthalazin-1-yl]-oxazole-4-carboxylic Acid] |  |

Second part, the compound before the results:

| Compound | solubility kinetic [1, 2] [µg/mL] | Sol. [1, 2] [µM] | IC50 (PDE 4 enzyme; PDE 4 isolated from U937 cell line, SPA with 3H-cAMP) [nM] | % at 10^−7 (PDE 4 enzyme) [% at 10^−7] | Sol. [1, 3] [µM] |
| --- | --- | --- | --- | --- | --- |
| COc1ccc2c(Cc3c(Cl)cncc3Cl)nnc(-c3ccc(OC)c(C(=O)O)c3)c2c1 [Compound 4, 5-[4-(3,5-dichloro-pyridin-4-ylmethyl)-7-methoxy-phthalazin-1-yl]-2-methoxy-benzoic Acid] | 226 (≈ 481 µM) | 480.85 |  |  |  |
| 5-[4-(3,5-dichloro-pyridin-4-ylmethyl)-7-methoxy-phthalazin-1-yl]-2-methoxy-benzoic Acid [Compound 4] |  |  |  |  | 37 |
| COc1ccc2c(Cc3c(Cl)cncc3Cl)nnc(-c3ccc(C(=O)O)cc3)c2c1 [Compound 1, 4-[4-(3,5-dichloro-pyridin-4-ylmethyl)-7-methoxy-phthalazin-1-yl]-benzoic Acid] | 218 (≈ 495 µM) | 495.45 |  | 25 |  |
| COc1ccc2c(Cc3c(Cl)cncc3Cl)nnc(-c3cc(C(=O)O)cc([N+](=O)[O-])c3)c2c1 [Compound 3, 3-[4-(3,5-dichloro-pyridin-4-ylmethyl)-7-methoxy-phthalazin-1-yl]-5-nitro-benzoic Acid] | 298 (≈ 614 µM) | 614.43 |  | 47 |  |
| 3-[4-(3,5-dichloro-pyridin-4-ylmethyl)-7-methoxy-phthalazin-1-yl]-5-methanesulfonylamino-benzoic Acid [Compound 6] |  |  |  |  | <1 |
